Laboratory results published in patent publication US4359458A, “O-β. -D (and O-α.. -D) Multigalactopyranosyl, xylopyranosyl and glucopyranosyl sulfate salts” (American Cyanamid Company, priority 1981, dated 1982).
Structures can show the parent of a compound that is named as a salt.

Tests used:
activated human C1 = activated human C1 (Homo sapiens, UniProt P09871); assay: Test Code 026 (C1 inhibitor); format: biochemical; details: serial dilution assay, twofold dilutions; higher well number indicates higher activity
Description: (§1) An active inhibitor protects C2 from C1 and C4; (ii) Test Code 035 (C3-C9 inhibitor)--This test determines the ability of the late components of human complement (C3-C9) to lyse EAC 142 in the presence of appropriate dilutions of the test compound. An active inhibitor protects EAC 142 from lysis by human C3-C9; (iii) Test Code 036 (C-Shunt inhibitor)--In this test human erythrocytes rendered fragile are lysed in autologous serum via the shunt pathway activated by cobra venom factor in the presence of appropriate dilutions of the test compound. Inhibition of the shunt pathway results in failure of lysis; (iv) Cap 50 Test--Here, appropriate amounts of the test compound are added to a pool of guinea pig serum in vitro, after which the undiluted serum capillary tube assay of U.S. Pat. No. 3,876,376 is run. The concentration of compound inhibiting 50% is reported; and (v) Guinea Pig Intraperitoneal Test (GPIP)--Guinea pigs weighing about 300 g are dosed intraperitoneally (i.p.) with 200 mg/kg of the test compound dissolved in saline and adjusted to pH 7-8. Approximately 0.4 ml blood samples, taken by orbital sinus puncture 30 minutes and one hour after injections, are collected directly into centrifuge tubes; 5 ml blood samples, taken by decapitation 2 hours after injection are collected directly into beakers. The samples are allowed to clot, centrifuged, and the resultant sera are assayed for complement activity using the capillary complement assay. Percent inhibition is calculated by comparison with simultaneous controls. The results of the GPIP appear in Table I together with results of test code 026, 035, 036 and Cap 50.

[1] = tested on: late components of human complement (C3-C9); assay: Test Code 035 (C3-C9 inhibitor); format: biochemical; details: serial dilution assay, twofold dilutions; higher well number indicates higher activity; N = Negative
Description: as §1

[2] = tested on: shunt pathway activated by cobra venom factor; assay: Test Code 036 (C-Shunt inhibitor); format: cell-based, human; details: serial dilution assay, twofold dilutions; higher well number indicates higher activity; N = Negative
Description: as §1

Q: For O=S(=O)(O)OC[C@H]1O[C@@H](OC[C@H]2O[C@H](O[C@H]3O[C@H](COS(=O)(=O)O)[C@@H](OS(=O)(=O)O)[C@H](OS(=O)(=O)O)[C@H]3OS(=O)(=O)O)[C@H](OS(=O)(=O)O)[C@@H](OS(=O)(=O)O)[C@@H]2OS(=O)(=O)O)[C@H](OS(=O)(=O)O)[C@@H](OS(=O)(=O)O)[C@@H]1O[C@H]1O[C@H](COS(=O)(=O)O)[C@@H](O[C@H]2O[C@H](COS(=O)(=O)O)[C@@H](O[C@H]3O[C@H](COS(=O)(=O)O)[C@@H](O[C@H]4O[C@H](COS(=O)(=O)O)[C@@H](O[C@H]5O[C@H](COS(=O)(=O)O)[C@@H](O[C@H]6O[C@H](COS(=O)(=O)O)[C@@H](OS(=O)(=O)O)[C@H](OS(=O)(=O)O)[C@H]6OS(=O)(=O)O)[C@H](OS(=O)(=O)O)[C@H]5OS(=O)(=O)O)[C@H](OS(=O)(=O)O)[C@H]4OS(=O)(=O)O)[C@H](OS(=O)(=O)O)[C@H]3OS(=O)(=O)O)[C@H](OS(=O)(=O)O)[C@H]2OS(=O)(=O)O)[C@H](OS(=O)(=O)O)[C@H]1OS(=O)(=O)O [drawing 25, Glc 1α,4 (glc 1α,4)5 glc 1β,6 glc 1α,1α'glc, nonacosakis (H-sulfate), nonacosasalt with trimethylamine], which “Cl 026 Wells” value (activated human C1) is on record?
A: 9 Wells

Q: What about the “C-Late 035 Wells” value [1] of the same compound?
A: N

Q: And the “C-Shunt Inhibition 036 Wells” value [2]?
A: 5 Wells

Q: With O=S(=O)(O)OC[C@H]1O[C@@H](OC[C@H]2O[C@H](O[C@H]3O[C@H](CO[C@@H]4O[C@H](COS(=O)(=O)O)[C@@H](O[C@H]5O[C@H](COS(=O)(=O)O)[C@@H](O[C@H]6O[C@H](COS(=O)(=O)O)[C@@H](O[C@H]7O[C@H](COS(=O)(=O)O)[C@@H](O[C@H]8O[C@H](COS(=O)(=O)O)[C@@H](O[C@H]9O[C@H](COS(=O)(=O)O)[C@@H](O[C@H]%10O[C@H](COS(=O)(=O)O)[C@@H](OS(=O)(=O)O)[C@H](OS(=O)(=O)O)[C@H]%10OS(=O)(=O)O)[C@H](OS(=O)(=O)O)[C@H]9OS(=O)(=O)O)[C@H](OS(=O)(=O)O)[C@H]8OS(=O)(=O)O)[C@H](OS(=O)(=O)O)[C@H]7OS(=O)(=O)O)[C@H](OS(=O)(=O)O)[C@H]6OS(=O)(=O)O)[C@H](OS(=O)(=O)O)[C@H]5OS(=O)(=O)O)[C@H](OS(=O)(=O)O)[C@H]4OS(=O)(=O)O)[C@@H](OS(=O)(=O)O)[C@H](OS(=O)(=O)O)[C@H]3OS(=O)(=O)O)[C@H](OS(=O)(=O)O)[C@@H](OS(=O)(=O)O)[C@@H]2OS(=O)(=O)O)[C@H](OS(=O)(=O)O)[C@@H](OS(=O)(=O)O)[C@@H]1O[C@H]1O[C@H](COS(=O)(=O)O)[C@@H](O[C@H]2O[C@H](COS(=O)(=O)O)[C@@H](O[C@H]3O[C@H](COS(=O)(=O)O)[C@@H](O[C@H]4O[C@H](COS(=O)(=O)O)[C@@H](O[C@H]5O[C@H](COS(=O)(=O)O)[C@@H](O[C@H]6O[C@H](COS(=O)(=O)O)[C@@H](OS(=O)(=O)O)[C@H](OS(=O)(=O)O)[C@H]6OS(=O)(=O)O)[C@H](OS(=O)(=O)O)[C@H]5OS(=O)(=O)O)[C@H](OS(=O)(=O)O)[C@H]4OS(=O)(=O)O)[C@H](OS(=O)(=O)O)[C@H]3OS(=O)(=O)O)[C@H](OS(=O)(=O)O)[C@H]2OS(=O)(=O)O)[C@H](OS(=O)(=O)O)[C@H]1OS(=O)(=O)O [drawing 23, Glc 1α,4 (glc 1α,4)5 glc 1β,6 glc 1α,1α'glc 1β,6 glc (glc 1α,4)5 1α,4 glc, pentacontakis (H-sulfate), pentacontasodium salt] as the compound, how does the “Cl 026 Wells” value (activated human C1) read?
A: 9 Wells

Q: And the “C-Late 035 Wells” value [1]?
A: 2 Wells

Q: And the “C-Shunt Inhibition 036 Wells” value [2]?
A: 6 Wells

Q: Which results are given for O=S(=O)(O)OC[C@H]1O[C@@H](OC[C@H]2O[C@H](O[C@H]3O[C@H](CO[C@@H]4O[C@H](COS(=O)(=O)O)[C@@H](O[C@H]5O[C@H](COS(=O)(=O)O)[C@@H](O[C@H]6O[C@H](COS(=O)(=O)O)[C@@H](OS(=O)(=O)O)[C@H](OS(=O)(=O)O)[C@H]6OS(=O)(=O)O)[C@H](OS(=O)(=O)O)[C@H]5OS(=O)(=O)O)[C@H](OS(=O)(=O)O)[C@H]4OS(=O)(=O)O)[C@@H](OS(=O)(=O)O)[C@H](OS(=O)(=O)O)[C@H]3OS(=O)(=O)O)[C@H](OS(=O)(=O)O)[C@@H](OS(=O)(=O)O)[C@@H]2OS(=O)(=O)O)[C@H](OS(=O)(=O)O)[C@@H](OS(=O)(=O)O)[C@@H]1O[C@H]1O[C@H](COS(=O)(=O)O)[C@@H](O[C@H]2O[C@H](COS(=O)(=O)O)[C@@H](OS(=O)(=O)O)[C@H](OS(=O)(=O)O)[C@H]2OS(=O)(=O)O)[C@H](OS(=O)(=O)O)[C@H]1OS(=O)(=O)O [drawing 19, Glc 1α,4 glc 1α,4 glc 1β,6 glc 1α,1α' glc 1β,6 glc 1α,4 glc 1α,4 glc, hexacosakis (H-sulfate), hexacosasodium salt]?
A: Cl 026 Wells (activated human C1): 9 Wells; C-Late 035 Wells [1]: 1 Wells; C-Shunt Inhibition 036 Wells [2]: 6 Wells

Q: What does the source list for O=S(=O)(O)OC[C@H]1O[C@@H](OC[C@H]2O[C@H](O[C@H]3O[C@H](COS(=O)(=O)O)[C@@H](OS(=O)(=O)O)[C@H](OS(=O)(=O)O)[C@H]3OS(=O)(=O)O)[C@H](OS(=O)(=O)O)[C@@H](OS(=O)(=O)O)[C@@H]2OS(=O)(=O)O)[C@H](OS(=O)(=O)O)[C@@H](OS(=O)(=O)O)[C@@H]1O[C@H]1O[C@H](COS(=O)(=O)O)[C@@H](O[C@H]2O[C@H](COS(=O)(=O)O)[C@@H](O[C@H]3O[C@H](COS(=O)(=O)O)[C@@H](O[C@H]4O[C@H](COS(=O)(=O)O)[C@@H](O[C@H]5O[C@H](COS(=O)(=O)O)[C@@H](O[C@H]6O[C@H](COS(=O)(=O)O)[C@@H](OS(=O)(=O)O)[C@H](OS(=O)(=O)O)[C@H]6OS(=O)(=O)O)[C@H](OS(=O)(=O)O)[C@H]5OS(=O)(=O)O)[C@H](OS(=O)(=O)O)[C@H]4OS(=O)(=O)O)[C@H](OS(=O)(=O)O)[C@H]3OS(=O)(=O)O)[C@H](OS(=O)(=O)O)[C@H]2OS(=O)(=O)O)[C@H](OS(=O)(=O)O)[C@H]1OS(=O)(=O)O [drawing 26, glc 1α,4 (glc 1α,4)5 glc 1β,6 glc 1α,1α'glc, nonacosakis (H-sulfate), nonacosasodium salt]?
A: Cl 026 Wells (activated human C1): 10 Wells; C-Late 035 Wells [1]: 1 Wells; C-Shunt Inhibition 036 Wells [2]: 6 Wells

Q: With O=S(=O)(O)OC[C@H]1O[C@@H](OC[C@H]2O[C@H](O[C@H]3O[C@H](CO[C@@H]4O[C@H](COS(=O)(=O)O)[C@H](OS(=O)(=O)O)[C@H](OS(=O)(=O)O)[C@H]4OS(=O)(=O)O)[C@@H](OS(=O)(=O)O)[C@H](OS(=O)(=O)O)[C@H]3OS(=O)(=O)O)[C@H](OS(=O)(=O)O)[C@@H](OS(=O)(=O)O)[C@@H]2OS(=O)(=O)O)[C@H](OS(=O)(=O)O)[C@@H](OS(=O)(=O)O)[C@H]1OS(=O)(=O)O [drawing 12, Gal 1β,6 glc 1α,1α' glc 1β,6 gal, tetradecakis (H-sulfate), tetradecasodium salt] as the compound, how does the “Cl 026 Wells” value (activated human C1) read?
A: 9 Wells

Q: And the “C-Shunt Inhibition 036 Wells” value [2]?
A: 6 Wells

Q: With O=S(=O)(O)OC[C@H]1O[C@@H](OC[C@H]2O[C@H](O[C@H]3O[C@H](CO[C@@H]4O[C@H](COS(=O)(=O)O)[C@@H](O[C@H]5O[C@H](COS(=O)(=O)O)[C@@H](OS(=O)(=O)O)[C@H](OS(=O)(=O)O)[C@H]5OS(=O)(=O)O)[C@H](OS(=O)(=O)O)[C@H]4OS(=O)(=O)O)[C@@H](OS(=O)(=O)O)[C@H](OS(=O)(=O)O)[C@H]3OS(=O)(=O)O)[C@H](OS(=O)(=O)O)[C@@H](OS(=O)(=O)O)[C@@H]2OS(=O)(=O)O)[C@H](OS(=O)(=O)O)[C@@H](OS(=O)(=O)O)[C@@H]1O[C@H]1O[C@H](COS(=O)(=O)O)[C@@H](OS(=O)(=O)O)[C@H](OS(=O)(=O)O)[C@H]1OS(=O)(=O)O [drawing 16, Glc 1α,4 glc 1β,6 glc 1α,1α' glc 1β,6 glc 1α,4 glc, eicosakis (H-sulfate), eicosasodium salt] as the compound, how does the “Cl 026 Wells” value (activated human C1) read?
A: 10 Wells

Q: And the “C-Late 035 Wells” value [1]?
A: N

Q: And the “C-Shunt Inhibition 036 Wells” value [2]?
A: 6 Wells

Q: For O=S(=O)(O)O[C@@H]1[C@@H](OS(=O)(=O)O)[C@@H](O[C@H]2O[C@H](CO[C@@H]3OC[C@@H](OS(=O)(=O)O)[C@H](OS(=O)(=O)O)[C@H]3OS(=O)(=O)O)[C@@H](OS(=O)(=O)O)[C@H](OS(=O)(=O)O)[C@H]2OS(=O)(=O)O)O[C@H](CO[C@@H]2OC[C@@H](OS(=O)(=O)O)[C@H](OS(=O)(=O)O)[C@H]2OS(=O)(=O)O)[C@H]1OS(=O)(=O)O [drawing 13, Xyl 1β,6 glc 1α,1α' glc 1β,6 xyl, dodecakis (H-sulfate), dodecasalt with trimethylamine], which “Cl 026 Wells” value (activated human C1) is on record?
A: 10 Wells

Q: What about the “C-Shunt Inhibition 036 Wells” value [2] of the same compound?
A: 3 Wells

Q: With O=S(=O)(O)OC[C@H]1O[C@@H](OC[C@H]2O[C@H](O[C@H]3O[C@H](CO[C@@H]4O[C@H](COS(=O)(=O)O)[C@H](OS(=O)(=O)O)[C@H](OS(=O)(=O)O)[C@H]4OS(=O)(=O)O)[C@@H](OS(=O)(=O)O)[C@H](OS(=O)(=O)O)[C@H]3OS(=O)(=O)O)[C@H](OS(=O)(=O)O)[C@@H](OS(=O)(=O)O)[C@@H]2OS(=O)(=O)O)[C@H](OS(=O)(=O)O)[C@@H](OS(=O)(=O)O)[C@H]1OS(=O)(=O)O [drawing 11, Gal 1β,6 glc 1α,1α' glc 1β,6 gal, tetradecakis (H-sulfate), tetradecasalt with trimethylamine] as the compound, how does the “Cl 026 Wells” value (activated human C1) read?
A: 9 Wells

Q: What about the “C-Shunt Inhibition 036 Wells” value [2] of the same compound?
A: 5 Wells
